The text below walks through data of ChEMBL document CHEMBL1133411, “The design, synthesis and activity of non-ATP competitive inhibitors of pp60(c-src) tyrosine kinase. Part 2: hydroxyindole derivatives” (Bioorg Med Chem Lett, 2000).

Assay [1] concerns the target Proto-oncogene tyrosine-protein kinase Src (Homo sapiens) (UniProt P12931). As to the kind of experiment: Percent inhibition determined against human recombinant p60 c-Src tyrosine kinase at 100 uM.
For assay [2] the target is unchanged. As to the kind of experiment: Percent inhibition of human recombinant p60 c-Src tyrosine kinase at 100 uM (inactive).
The target is the same in assay [3]. As to the kind of experiment: Percent inhibition against human recombinant p60 c-Src tyrosine kinase at 500 uM.

The structures appear in SMILES notation. Activity calls are given as the source filed them.

Chain of Proto-oncogene tyrosine-protein kinase Src (Homo sapiens) (P12931 2-536 limits assumed): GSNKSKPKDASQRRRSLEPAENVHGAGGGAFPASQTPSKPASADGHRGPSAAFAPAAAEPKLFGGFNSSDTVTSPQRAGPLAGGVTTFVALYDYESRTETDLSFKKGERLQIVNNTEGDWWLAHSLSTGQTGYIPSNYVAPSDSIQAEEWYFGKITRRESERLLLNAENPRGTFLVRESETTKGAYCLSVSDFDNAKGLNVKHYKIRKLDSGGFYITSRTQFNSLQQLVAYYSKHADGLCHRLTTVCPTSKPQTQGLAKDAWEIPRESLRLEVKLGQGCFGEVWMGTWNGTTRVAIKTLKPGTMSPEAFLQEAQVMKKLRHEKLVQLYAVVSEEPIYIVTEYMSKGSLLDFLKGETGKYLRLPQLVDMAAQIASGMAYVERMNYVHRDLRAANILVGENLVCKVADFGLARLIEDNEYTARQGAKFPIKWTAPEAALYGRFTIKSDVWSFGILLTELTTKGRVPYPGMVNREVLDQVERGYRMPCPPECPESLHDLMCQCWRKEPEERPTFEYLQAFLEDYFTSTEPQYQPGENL

The inhibition is the drop in the measured response relative to a control, in per cent. For the molecule `O=C(NCc1ccc(O)cc1)c1cc2ccccc2[nH]1`, the inhibition in assay [1] was 36%. Still for that read-out and setting: with `COc1ccccc1CNC(=O)c1cc2cc(O)ccc2[nH]1` the figure was 21%. For `COc1ccccc1NC(=O)c1cc2cc(O)ccc2[nH]1`, the inhibition in assay [1] stood at 3%. The same measure, in the same setting: with `COc1cccc(NC(=O)c2cc3cc(O)ccc3[nH]2)c1` the figure was 21%; with `O=C(NCc1cccc(O)c1)c1cc2cc(O)ccc2[nH]1`, 74%; with `O=C(NCc1ccc(O)cc1)c1cc2cc(O)ccc2[nH]1`, 54%.

On to `O=C(NCc1cccc(F)c1)c1cc2cc(O)ccc2[nH]1`, for which the inhibition in assay [1] worked out at 57%.

For the molecule `CCOC(=O)c1cc2cc(O)c(O)cc2[nH]1`, the inhibition in assay [1] is 28%. Still for that read-out and setting: with `O=C(NCc1ccccc1O)c1cc2cc(O)ccc2[nH]1` the figure was 24%. Still for that read-out and setting: with `C[C@H](NC(=O)c1cc2cc(O)ccc2[nH]1)c1cccc(O)c1` the figure was 13%; with `COC(=O)Cc1ccc(NC(=O)c2cc3cc(O)ccc3[nH]2)cc1`, 32%; with `O=C(Nc1ccc(O)cc1)c1cc2cc(O)ccc2[nH]1`, 45%. On the same count and under the same terms, with `O=C(Nc1cccc(F)c1)c1cc2cc(O)ccc2[nH]1` the figure was 21%; with `O=C(O)Cc1ccc(NC(=O)c2cc3cc(O)ccc3[nH]2)cc1`, 7%. On to `O=C(O)c1ccc(CNC(=O)c2cc3cc(O)ccc3[nH]2)cc1`, for which the inhibition result in assay [2] was “inactive”. For the molecule `COC(=O)c1cc2cc(O)ccc2[nH]1`, the inhibition in assay [3] came out at 40%. In the case of `C[C@@H](NC(=O)c1cc2cc(O)ccc2[nH]1)c1cccc(O)c1`, the inhibition in assay [1] came to 15%.

For `O=C(Nc1ccccc1O)c1cc2cc(O)ccc2[nH]1`, the inhibition in assay [1] came to 43%.

Regarding `COC(=O)c1ccc(CNC(=O)c2cc3cc(O)ccc3[nH]2)cc1`, the inhibition in assay [1] came out at 11%. The same measure, in the same setting: with `COc1ccc(CNC(=O)c2cc3cc(O)ccc3[nH]2)cc1` the figure was 18%.

On to `O=C(Nc1cccc(O)c1)c1cc2cc(O)ccc2[nH]1`, for which, in assay [1], the inhibition turned out to be 30%.
